From patent US4340602A, “Compositions inhibiting estrogen sulfotransferase activity” (Wayne State University, priority 1978, dated 1982)
Like-named read-outs stand apart in the source and are kept apart here.

Experiments:
[1] = molecular target: T1, Bovine Adrenal Estrogen Sulfotransferase (Bos taurus, UniProt P19217); experiment: Inhibition of bovine adrenal estrogen sulfotransferase (estrone sulfurylation); format: biochemical
T1 construct: The enzyme was isolated from the bovine adrenals; from tissue; host or cells: bovine adrenals; purified by ammonium sulfate fractionation and chromatography on DEAE-cellulose or DEAE-Sephadex A-50
T1 sequence (P19217 1-295): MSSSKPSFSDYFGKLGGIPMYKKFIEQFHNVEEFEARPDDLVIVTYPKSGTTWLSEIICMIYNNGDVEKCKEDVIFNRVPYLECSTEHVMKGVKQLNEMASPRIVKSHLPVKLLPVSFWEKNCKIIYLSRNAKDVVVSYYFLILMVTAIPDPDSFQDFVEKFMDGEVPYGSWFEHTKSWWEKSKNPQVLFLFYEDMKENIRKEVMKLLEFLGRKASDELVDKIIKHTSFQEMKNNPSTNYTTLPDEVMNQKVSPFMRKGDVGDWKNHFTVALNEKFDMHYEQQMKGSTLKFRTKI
Description: Materials are evaluated for activity as estrogen sulfotransferase inhibitors by the method of Rozhin et al, Journal of Biological Chemistry, 252:7214-7220 (October 25, 1977), herein incorporated by reference.
Isolation of Estrogen Sulfotransferase (EC 2.8.2.4). The enzyme was isolated from the bovine adrenals and purified by ammonium sulfate fractionation and column chromatography on DEAE-cellulose or DEAE-SephadexA-50 [Rozhin et al (1974)].
Standard Enzyme Assay. The incubation mixtures contained the following in a total volume of 0.2 ml: 0.4 mM P-Ado-PS; 2 to 23 μM estrone (3-hydroxy-1,3,5(10)-estratriene-17-one), 5×10^5 dpm of [6,7-^3 H]estrone; 5 mM magnesium acetate; 0.19 M Tris/HCl buffer (pH 8.1 at 37°); 5 ug of the enzyme; and 25 μM dithiothreitol. After a 10-min incubation (in the presence of a constant amount of inhibitor and a variable amount of estrone), the boiled mixtures were supplemented with 5 μg of aqueous estrone sulfate. The remaining [^3 H]estrone was extracted three times with 0.3 ml of ethyl ether. The residual ether was removed and the volume adjusted to 0.5 ml with methanol. A sample (25 μl) was applied, together with 10 μg of methanolic estrone sulfate marker, to type SG chromatography media (Gelman Instrument Co., Ann Arbor, Mich.), and developed with chloroform/acetone/acetic acid (110:35:6). After drying the sheet, samples were visualized by spraying with methylene blue (25 mg in 100 ml of 0.05 N H2 SO4), punched out with a cork borer, and counted in 10 ml of dioxane counting liquid. A blank employing a boiled enzyme sample was incubated and the recorded counts were substracted from each determination. The total corrected counts, representing steroid sulfate ester, were converted to nanomoles utilizing the specific activity of [^3 H]estrone. An enzyme unit was defined as that quantity of enzyme which synthesized 1 nmol of estrone sulfate in 1 min under chosen conditions. […] When nonsubstrate steroids were used as the inhibitors, the procedure for the enzyme assay was as described earlier [Rozhin et al (1974)], utilizing 5 μg of enzyme, P-Ado-[^35 S]PS, and unlabeled estrone.
Data Processing. The initial velocity analysis was carried out keeping the concentration of P-Ado-PS at saturation level, varying the estrone concentration and keeping the concentration of the inhibitor at a fixed level. Preliminary plots of the data were made in the double reciprocal form (l/v versus l/[S]), and in the form of replots of slopes (and intercepts) versus inhibitor concentration. On the basis of these plots, the proper inhibition pattern was chosen for each experiment and the data points were fitted to the appropriate equation.
Linear competitive inhibition: [formula]
Hyperbolic competitive inhibition: [formula]
Slope-parabolic non-competitive inhibition: [formula]
All calculations were performed using Cleland's Fortran programs (Adv. Enzymol., 29:1-32). The programs gave the values of Km, Vmax, and inhibition constants.
Fractional Inhibition. From kinetic experiments, Ki was calculated as described above under "Data Processing" after making replots of slopes (and/or intercepts) versus inhibitor concentration. […] Substituting v and vi from the corresponding rate equations in the absence of (v=(Vmax [S])/(Km +[S])) and presence of a (competitive) inhibition (Equation 1), the following relationship for FI is obtained: [formula] After substituting [S], Km, and [I] (see above), the equation for the fractional (competitive) inhibition simplifies to: [formula] and the mathematical relationship between FI and Ki of competitive inhibitors is represented by the continuous curve in FIG. 2 in Rozhin et al., J. Biol. Chem., 252, 7214-7220, 1977. The dashed line represents the relationship between FI and the Ki of pure noncompetitive inhibition derived mathematically in an analogous manner and expressed as [formula] Since [I]=22.2 μM, [formula]

[2] = system: 17β-estradiol receptor (rabbit uterus 100,000×g supernatant); experiment: Competitive binding: effect on binding of 17β-estradiol (E2) by rabbit uterine tissue; conditions: 2000-fold excess; 0.7 nM tritiated 17β-estradiol; 2 h on ice
Description: Competitive binding experiments were carried out utilizing the 100,000×g supernatant from rabbit uterus maintained at 4° C. Unlabeled competitive estrogens were added to the incubation 10 min. before tritiated 17β-estradiol. Incubations were carried out in quadruplicate for 2 h on ice. [2,4,6,7-^3 H]-17-Estradiol was added to 0.5 ml of supernatant (0.69 mg protein) at a concentration of 0.7 nM. Radioactivity in the bound 17β-estradiol was assayed by the dextran-coated charcoal (1:10) procedure.

[3] = system: estrogen sulfotransferase; experiment: Blocking of estrogen sulfotransferase activity by 3-methoxy-4-nitroestrone (Example 4); format: biochemical; conditions: molar ratio of 10:1
[4] = pH 8.1, read-out: Fractional Inhibition (Table II)
[5] = inhibitors 2 to 4 and 9 to 12; from kinetic experiments; read-out: Ki (Table II), not among those calculated
[6] = pH 8.1; read-out: Fractional Inhibition (Table II)
[7] = inhibitors 2, 7 and 8; competitive inhibition equation; read-out: Ki (Table I), calculated from fractional inhibition (competitive inhibition)
[8] = pH 8.1; read-out: Fractional Inhibition (Table I)
[9] = pH 8.1, read-out: Fractional Inhibition (Table I)
[10] = inhibitors 3 to 6, 12 and 16; from kinetic experiments; read-out: Ki (Table I), determined experimentally
[11] = inhibitors 1 and 5 to 8; calculated from fractional inhibition; read-out: Ki (Table II), calculated from Equation 4 (competitive inhibition)

C[C@]12CC[C@@H]3c4ccc(O)cc4CC[C@H]3[C@@H]1C[C@@H](O)[C@@H]2O [1,3,5(10)Estratriene-3,16α,17β-triol] gave a Ki [1] of 8.2 µM and an inhibition at 22.2 µM [1, 4] of 66%.

In the case of C[C@]12CC[C@@H]3c4ccc(O)cc4CC[C@H]3[C@@H]1C[C@@H](O)C2 [1,3,5(10)Estratriene-3,16α-diol], the Ki [1, 5] is reported as 1.3 µM and the inhibition at 22.2 µM [1, 6] is reported as 89%.

With C[C@]12CC[C@@H]3c4ccc(O)cc4CC[C@H]3[C@@H]1C[C@H](O)[C@@H]2O [1,3,5(10)Estratriene-3,16β,17β-triol] the Ki [1] was 5.5 µM and the inhibition at 22.2 µM [1, 4] was 72%.

With CC(=O)Oc1ccc2c(c1)CC[C@@H]1[C@@H]2CC[C@]2(C)[C@@H](O)CC[C@@H]12 [1,3,5(10)Estratriene-3,17β-diol-3-acetate] the Ki [1, 7] was 17 µM and the inhibition at 22.2 µM [1, 8] was 39%.

Compound C[C@]12CC[C@@H]3c4ccc(OC(=O)c5ccccc5)cc4CC[C@H]3[C@@H]1CC[C@@H]2O [1,3,5(10)Estratriene-3,17β-diol-3-benzoate] has a Ki [1] of 90 µM and an inhibition at 22.2 µM [1, 9] of 11%.

C[C@@]12CCC[C@H]1[C@@H]1CCc3cc(O)ccc3[C@H]1CC2 [1,3,5(10)Estratriene-3-ol] showed a Ki [1, 10] of 3.5 µM and an inhibition at 22.2 µM [1, 8] of 67%.

C[C@]12CC[C@@H]3c4ccccc4CC[C@H]3[C@@H]1CC[C@@H]2O [1,3,5(10)Estratriene-17β-ol] showed a Ki [1, 7] of 16 µM and an inhibition at 22.2 µM [1, 8] of 41%.

With C[C@@]12CCC[C@H]1[C@@H]1CCc3ccccc3[C@H]1CC2 [1,3,5(10)Estratriene] the inhibition at 22.2 µM [1, 8] was 0%.

With C[C@]12CC[C@@H]3c4cc(Br)c(O)c(Br)c4CC[C@H]3[C@@H]1CC[C@@H]2O [2,4-Dibromo-1,3,5(10)estratriene-3,17β-diol] the Ki [1, 11] was 0.11 µM and the inhibition at 22.2 µM [1, 6] was 99%.

With C[C@]12CC[C@@H]3c4cc([N+](=O)[O-])c(O)c([N+](=O)[O-])c4CC[C@H]3[C@@H]1CC[C@@H]2O [2,4-Dinitro-1,3,5(10)estratriene-3,17β-diol] the Ki [1] was 4.3 µM and the inhibition at 22.2 µM [1, 4] was 72%.

Work on C[C@]12CC[C@@H]3c4cc(N)c(O)cc4CC[C@H]3[C@@H]1CC[C@@H]2O [2-Amino-1,3,5(10)estratriene-3,17β-diol] yielded a Ki [1, 11] of 3.5 µM and an inhibition at 22.2 µM [1, 6] of 76%.

Compound C[C@]12CC[C@@H]3c4cc([N+](=O)[O-])c(O)cc4CC[C@H]3[C@@H]1CC[C@@H]2O [2-Nitro-1,3,5(10)estratriene-3,17β-diol] has a Ki [1, 5] of 2.4 µM and an inhibition at 22.2 µM [1, 6] of 80%.

C[C@]12CC[C@@H]3c4ccc(O)cc4C(=O)C[C@H]3[C@@H]1CC[C@@H]2O [3,17β-Dihydroxy-1,3,5(10)-estratriene-6-one] was tested, and the Ki [1] was 5.5 µM and the inhibition at 22.2 µM [1, 4] was 69%.

Work on C[C@]12CC[C@@H]3c4ccc(O)cc4CC[C@H]3[C@@H]1CCC2=O [3-Hydroxy-1,3,5(10)estratriene-17-one] yielded a Ki [1] of 4.9 µM and an inhibition at 22.2 µM [1, 8] of 65%.

Compound COc1ccc2c(c1)CC[C@@H]1[C@@H]2CC[C@]2(C)[C@@H](O)CC[C@@H]12 [3-Methoxy-1,3,5(10)estratriene-17β-ol] has a Ki [1, 10] of 4.8 µM and an inhibition at 22.2 µM [1, 8] of 61%.

COc1ccc2c(c1[N+](=O)[O-])CC[C@@H]1[C@@H]2CC[C@]2(C)C(=O)CC[C@@H]12 [3-Methoxy-4-NO2-1,3,5(10)-estratriene-17-one] was tested, and the Ki [1, 11] was 4.3 µM, the inhibition at 22.2 µM [1, 6] was 72% and the “blocking of binding of 17β-estradiol to its receptor” value [2] was “not blocked”. For the same compound, the “blocked activity of estrogen sulfotransferase” value [3] was over 90%.

For C[C@]12CC[C@H](O)CC1=CC[C@@H]1[C@@H]2CC[C@]2(C)C(=O)CC[C@@H]12 [3β-Hydroxy-5-androstene-17-one], the Ki [1] was 170 µM and the inhibition at 22.2 µM [1, 9] was 21%.

Compound C[C@]12CC[C@H](O)C[C@H]1CC[C@@H]1[C@@H]2CC[C@]2(C)C(=O)CC[C@@H]12 [3β-Hydroxy-5β-androstane-17-one] has a Ki [1] of 302 µM and an inhibition at 22.2 µM [1, 9] of 13%.

Compound C[C@]12CC[C@@H]3c4ccc(O)c(N)c4CC[C@H]3[C@@H]1CC[C@@H]2O [4-Amino-1,3,5(10)estratriene-3,17β-diol] has a Ki [1, 11] of 3.5 µM and an inhibition at 22.2 µM [1, 6] of 76%.

C[C@]12CC[C@@H]3c4ccc(O)c([N+](=O)[O-])c4CC[C@H]3[C@@H]1CC[C@@H]2O [4-Nitro-1,3,5(10)estratriene-3,17β-diol] showed a Ki [1, 5] of 0.15 µM and an inhibition at 22.2 µM [1, 6] of 98%.

In the case of C[C@]12CC[C@H]3[C@@H](CC=C4C[C@@H](O)CC[C@@]43C)[C@@H]1CC[C@@H]2O [5-Androstene-3β,17β-diol], the Ki [1] is reported as 35 µM and the inhibition at 22.2 µM [1, 9] is reported as 39%.

C[C@@]12CCC[C@H]1[C@@H]1CC=C3C[C@@H](O)CC[C@]3(C)[C@H]1CC2 [5-Androstene-3β-ol] showed a Ki ([1]; inhibitors 10, 11 and 13 to 15; Equation 5 (noncompetitive); read-out: Ki (Table I), calculated from fractional inhibition (noncompetitive inhibition)) of 50 µM and an inhibition at 22.2 µM [1, 8] of 31%.

With C[C@@]12CCC[C@H]1[C@@H]1CC=C3CCCC[C@]3(C)[C@H]1CC2 [5-Androstene] the inhibition at 22.2 µM [1, 8] was 0% and the “estrogen sulfotransferase inhibition, in words” value ([1]; summary statement) was “inactive”.

Compound C[C@]12CC[C@H](O)C[C@@H]1CC[C@@H]1[C@@H]2CC[C@]2(C)[C@@H](O)CC[C@@H]12 [5α-Androstane-3β,17β-diol] has a Ki [1] of 47 µM and an inhibition at 22.2 µM [1, 9] of 32%.

For C[C@]12CCC(=O)C[C@@H]1CC[C@@H]1[C@@H]2CC[C@]2(C)[C@@H](O)CC[C@@H]12 [17β-Hydroxy-5α-androstane-3-one], the Ki [1] was 38 µM and the inhibition at 22.2 µM [1, 9] was 37%.

Compound C[C@]12CCC(=O)C[C@H]1CC[C@@H]1[C@@H]2CC[C@]2(C)[C@@H](O)CC[C@@H]12 [17β-Hydroxy-5β-androstane-3-one] has a Ki [1] of 74 µM and an inhibition at 22.2 µM [1, 9] of 23%.
